“Also recorded” adds a separate entry of the source.
What was measured:
C57BL/6 mice = assay: Oral glucose tolerance test (OGTT); type: in vivo; conditions: n=7
[1] = system: pancreas islets of the rats; assay: Insulin secretion of isolated rat pancreas islets (insulin radioimmunoassay); conditions: for effect of promoting insulin secretion: 30 min incubation, n=7

COc1ccc(C[C@H]2NC[C@H](O)[C@H]2OC(C)=O)cc1 [anisomycin, (2R,3S,4S)-2-[(4-methoxyphenyl)methyl]-3,4-pyrrolidinediol 3-acetate methyl ester]
tolerance to glucose load (blood glucose curve and AUC in OGTT) (C57BL/6 mice; 5 mg/kg intraperitoneally, vs control group): improved to different extents
glucose reducing effect (blood glucose curve and AUC in OGTT) (C57BL/6 mice; 15 mg/kg intraperitoneally, vs control group and 5 mg/kg): more obvious than 5 mg/kg anisomycin in glucose reducing effect
effect of promoting insulin secretion ([1]; 2.8 mmol/L glucose (2.8G), 10 μM): does not have the effect of promoting insulin secretion; also recorded: does not have the effect of promoting secretion of insulin
effect of promoting insulin secretion ([1]; 11.1 mmol/L glucose (11.1G), 1 μM): has the significant effect of promoting insulin secretion
effect of promoting insulin secretion ([1]; 11.1 mmol/L glucose (11.1G), 10 μM): has the significant effect of promoting insulin secretion; also recorded: has the significant effect of promoting secretion of insulin
effect of promoting insulin secretion ([1]; 16.7 mmol/L glucose (16.7G), 10 μM): can still promote secretion of insulin with significant difference
concentration dependence of promoting insulin secretion ([1]; 11.1G, 0.1 μM, 1 μM and 10 μM): concentration-dependent effect of promoting insulin secretion

Source: patent publication US12612362B2 (SHANXI MEDICAL UNIVERSITY, priority 2021, dated 2026)
